Test [1] has as its system p21 induction in HCT116 cells. Description: p21 induction in HCT116 cells. The test is classed as cell-based. The settings on record: Homo sapiens, HCT-116, 24 h, HCT116 cells, 24 h compound incubation; read-out: P21_EC50. Put shortly:
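EC50 from non-linear curve fit of p21 immunofluorescence (800 nm), with GAPDH (700 nm) read alongside. DMSO and a reference WRN inhibitor served as low and high controls. Cells (2,000/well) got 11 compound concentrations in duplicate for 24 h at 37 °C.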

Test [2] concerns the target WRN (BV08), human Werner helicase (Uniprot Q14191, amino acids 517-1235 with L1074F point mutation) (Homo sapiens (Human), UniProt Q14191, L1074F). Description: WRN (BV08) ADP-Glo assay. The following applies: class symbols A-E, read-out: ADP-Glo_hWRN_IC50. The test is classed as biochemical. On the technique in general: ADP-Glo turns the ADP formed in a reaction into a luminescent signal.

Sequence of WRN (BV08), human Werner helicase (Uniprot Q14191, amino acids 517-1235 with L1074F point mutation) (Q14191 other isoform, or with tags, fused parts or gaps L1074F (already in the parent)): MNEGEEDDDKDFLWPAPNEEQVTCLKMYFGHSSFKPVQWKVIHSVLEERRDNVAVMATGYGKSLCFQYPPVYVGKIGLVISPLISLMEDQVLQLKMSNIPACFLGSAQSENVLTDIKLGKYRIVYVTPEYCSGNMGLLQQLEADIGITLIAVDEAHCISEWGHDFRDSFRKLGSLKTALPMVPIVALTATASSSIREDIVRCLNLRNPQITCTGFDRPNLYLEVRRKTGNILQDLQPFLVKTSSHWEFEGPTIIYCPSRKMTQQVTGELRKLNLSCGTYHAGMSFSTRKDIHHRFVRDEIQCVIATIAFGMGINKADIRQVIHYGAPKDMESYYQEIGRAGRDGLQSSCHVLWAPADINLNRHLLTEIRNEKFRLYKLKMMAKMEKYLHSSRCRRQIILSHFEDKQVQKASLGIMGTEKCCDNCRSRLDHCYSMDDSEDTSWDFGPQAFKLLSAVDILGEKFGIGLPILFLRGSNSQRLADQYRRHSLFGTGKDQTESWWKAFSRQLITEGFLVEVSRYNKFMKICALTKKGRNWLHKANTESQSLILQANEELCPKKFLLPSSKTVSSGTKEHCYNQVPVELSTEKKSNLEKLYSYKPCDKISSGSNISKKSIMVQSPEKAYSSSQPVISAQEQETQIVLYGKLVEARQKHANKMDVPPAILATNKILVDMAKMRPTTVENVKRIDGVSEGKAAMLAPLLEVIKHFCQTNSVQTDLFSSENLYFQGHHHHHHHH

Regarding `CCc1c(N2CCN(C(=O)c3ncnc(C)c3O)CC2)c(=O)c2nc(N3CC[C@@H](O)C3)cnc2n1CC(=O)Nc1ccc(C(F)(F)F)cc1Cl` [I-56, (R)-N-(2-chloro-4-(trifluoromethyl)phenyl)-2-(6-ethyl-7-(4-(5-hydroxy-6-methylpyrimidine-4-carbonyl)piperazin-1-yl)-2-(3-hydroxypyrrolidin-1-yl)-8-oxopyrido[2,3-b]pyrazin-5(8H)-yl)acetamide], the EC50 in test [1] was over 5000 nM. In addition, the IC50 in test [2] was 5 to 50 nM.
Consider `CCc1c(N2CCN(C(=O)c3ncnc(C)c3O)[C@H](C)C2)c(=O)c2nc(N(C)C)cnc2n1CC(=O)Nc1ccc(C(F)(F)F)cc1Cl` [I-57, (R)-N-(2-chloro-4-(trifluoromethyl)phenyl)-2-(2-(dimethylamino)-6-ethyl-7-(4-(5-hydroxy-6-methylpyrimidine-4-carbonyl)-3-methylpiperazin-1-yl)-8-oxopyrido[2,3-b]pyrazin-5(8H)-yl)acetamide], for which, in test [1], the EC50 is 500 to 2000 nM. In addition, in test [2], the IC50 was 5 to 50 nM.
Regarding `CCc1c(N2CCN(C(=O)c3ncnc(C)c3O)CC2)c(=O)c2nc(N(C)C3CC3)cnc2n1CC(=O)Nc1ccc(C(F)(F)F)cc1Cl` [I-58, N-(2-chloro-4-(trifluoromethyl)phenyl)-2-(2-(cyclopropyl(methyl)amino)-6-ethyl-7-(4-(5-hydroxy-6-methylpyrimidine-4-carbonyl)piperazin-1-yl)-8-oxopyrido[2,3-b]pyrazin-5(8H)-yl)acetamide], the EC50 in test [1] was under 500 nM. In addition, in test [2], the IC50 lay in the range of 5 to 50 nM.
Turning to `CCc1c(N2CCN(C(=O)c3ncnc(C)c3O)CC2)c(=O)c2nc(N(C)C3CC(C)(O)C3)cnc2n1CC(=O)Nc1ccc(C(F)(F)F)cc1Cl` (stereo not drawn) [I-59, N-(2-chloro-4-(trifluoromethyl)phenyl)-2-(6-ethyl-2-((3-hydroxy-3-methylcyclobutyl)(methyl)amino)-7-(4-(5-hydroxy-6-methylpyrimidine-4-carbonyl)piperazin-1-yl)-8-oxopyrido[2,3-b]pyrazin-5(8H)-yl)acetamide], the EC50 in test [1] is 2000 to 5000 nM. Further, in test [2], the IC50 fell in the range of 5 to 50 nM.
For `CCc1c(N2CCN(C(=O)c3ncnc(C)c3O)CC2)c(=O)c2nc(N(C)C3CC(OC)C3)cnc2n1CC(=O)Nc1ccc(C(F)(F)F)cc1Cl` (stereo not drawn) [I-60, N-(2-chloro-4-(trifluoromethyl)phenyl)-2-(6-ethyl-7-(4-(5-hydroxy-6-methylpyrimidine-4-carbonyl)piperazin-1-yl)-2-((3-methoxycyclobutyl)(methyl)amino)-8-oxopyrido[2,3-b]pyrazin-5(8H)-yl)acetamide], in that order: 500 to 2000 nM and 5 to 50 nM.
On to `CCc1c(N2CCN(C(=O)c3ncnc(C)c3O)CC2)c(=O)c2nc3cc(C)sc3nc2n1CC(=O)Nc1ccc(C(F)(F)F)cc1Cl` [I-61, N-(2-chloro-4-(trifluoromethyl)phenyl)-2-(7-ethyl-6-(4-(5-hydroxy-6-methylpyrimidine-4-carbonyl)piperazin-1-yl)-2-methyl-5-oxopyrido[2,3-b]thieno[3,2-e]pyrazin-8(5H)-yl)acetamide], for which the EC50 in test [1] is under 500 nM. Also, the IC50 in test [2] lay in the range of 5 to 50 nM.
Take `CCc1c(N2CCN(C(=O)c3c(F)cnc(OC)c3O)CC2)c(=O)c2ncc(C)nc2n1CC(=O)Nc1ccc(C(F)(F)F)cc1Cl` [I-62, N-(2-chloro-4-(trifluoromethyl)phenyl)-2-(6-ethyl-7-(4-(5-fluoro-3-hydroxy-2-methoxyisonicotinoyl)piperazin-1-yl)-3-methyl-8-oxopyrido[2,3-b]pyrazin-5(8H)-yl)acetamide]: in test [1], the EC50 was over 5000 nM. Also, the IC50 in test [2] fell in the range of 5 to 50 nM.
With `CCc1c(N2CCN(C(=O)c3ncnc(C)c3O)CC2)c(=O)c2nc(-c3cnn(C)c3)c(C)nc2n1CC(=O)Nc1ccc(C(F)(F)F)cc1Cl` [I-63, N-(2-chloro-4-(trifluoromethyl)phenyl)-2-(6-ethyl-7-(4-(5-hydroxy-6-methylpyrimidine-4-carbonyl)piperazin-1-yl)-3-methyl-2-(1-methyl-1H-pyrazol-4-yl)-8-oxopyrido[2,3-b]pyrazin-5(8H)-yl)acetamide], in test [1], the EC50 is over 5000 nM. The IC50 in test [2] was in the range of 5 to 50 nM.
Take `CCc1c(N2CCN(C(=O)c3ncnc(C)c3O)CC2)c(=O)c2nc(C)c(C)nc2n1CC(=O)Nc1ccc(C(F)(F)F)cc1Cl` [I-64, N-(2-chloro-4-(trifluoromethyl)phenyl)-2-(6-ethyl-7-(4-(5-hydroxy-6-methylpyrimidine-4-carbonyl)piperazin-1-yl)-2,3-dimethyl-8-oxopyrido[2,3-b]pyrazin-5(8H)-yl)acetamide]: the EC50 in test [1] was in the range of 500 to 2000 nM. In test [2], the IC50 was 5 to 50 nM.
Consider `CCc1c(N2CCN(C(=O)c3ncnc(C)c3O)CC2)c(=O)c2nc(-c3ccnc(OC)c3)c(C)nc2n1CC(=O)Nc1ccc(C(F)(F)F)cc1Cl` [I-65, N-(2-chloro-4-(trifluoromethyl)phenyl)-2-(6-ethyl-7-(4-(5-hydroxy-6-methylpyrimidine-4-carbonyl)piperazin-1-yl)-2-(2-methoxypyridin-4-yl)-3-methyl-8-oxopyrido[2,3-b]pyrazin-5(8H)-yl)acetamide], for which, in test [1], the EC50 is over 5000 nM. The IC50 in test [2] lay within 5 to 50 nM.
For `CCc1c(N2CCN(C(=O)c3ncnc(C)c3O)CC2)c(=O)c2nc(N3CC(OC)C3)cnc2n1CC(=O)Nc1ccc(C(F)(F)F)cc1Cl` [I-66, N-(2-chloro-4-(trifluoromethyl)phenyl)-2-(6-ethyl-7-(4-(5-hydroxy-6-methylpyrimidine-4-carbonyl)piperazin-1-yl)-2-(3-methoxyazetidin-1-yl)-8-oxopyrido[2,3-b]pyrazin-5(8H)-yl)acetamide], the EC50 in test [1] was in the range of 2000 to 5000 nM. Also, the IC50 in test [2] lay in the range of 5 to 50 nM.
Turning to `CCc1c(N2CCN(C(=O)c3c(O)cccc3O)CC2)c(=O)c2ncc(C)nc2n1CC(=O)Nc1ccc(C(F)(F)F)cc1Cl` [I-67, N-(2-chloro-4-(trifluoromethyl)phenyl)-2-(7-(4-(2,6-dihydroxybenzoyl)piperazin-1-yl)-6-ethyl-3-methyl-8-oxopyrido[2,3-b]pyrazin-5(8H)-yl)acetamide], the EC50 in test [1] was over 5000 nM. In test [2], the IC50 fell in the range of 5 to 50 nM.
Take `CCc1c(N2CCN(C(=O)c3ncc4c(c3O)OCC4)CC2)c(=O)c2ncc(C)nc2n1CC(=O)Nc1ccc(C(F)(F)F)cc1Cl` [I-68, N-(2-chloro-4-(trifluoromethyl)phenyl)-2-(6-ethyl-7-(4-(7-hydroxy-2,3-dihydrofuro[3,2-c]pyridine-6-carbonyl)piperazin-1-yl)-3-methyl-8-oxopyrido[2,3-b]pyrazin-5(8H)-yl)acetamide]: the EC50 in test [1] was over 5000 nM. Further, in test [2], the IC50 fell in the range of 5 to 50 nM.
The matching figures for `CCc1c(N2CCN(C(=O)c3ncc4c(c3O)CCO4)CC2)c(=O)c2ncc(C)nc2n1CC(=O)Nc1ccc(C(F)(F)F)cc1Cl` [I-69, N-(2-chloro-4-(trifluoromethyl)phenyl)-2-(6-ethyl-7-(4-(4-hydroxy-2,3-dihydrofuro[2,3-c]pyridine-5-carbonyl)piperazin-1-yl)-3-methyl-8-oxopyrido[2,3-b]pyrazin-5(8H)-yl)acetamide]: over 5000 nM and 5 to 50 nM.
Consider `CCc1c(N2CCN(C(=O)c3cccc4oc(=O)[nH]c34)CC2)c(=O)c2ncc(C)nc2n1CC(=O)Nc1ccc(C(F)(F)F)cc1Cl` [I-70, N-(2-chloro-4-(trifluoromethyl)phenyl)-2-(6-ethyl-3-methyl-8-oxo-7-(4-(2-oxo-2,3-dihydrobenzo[d]oxazole-4-carbonyl)piperazin-1-yl)pyrido[2,3-b]pyrazin-5(8H)-yl)acetamide], for which the EC50 in test [1] was over 5000 nM. Besides, the IC50 in test [2] is 5 to 50 nM.

The values above are taken from patent publication US20250034136A1 (Nimbus Wadjet, Inc., priority 2023, published 2025).
